Assay results taken from US20240382474A1, “ENPP1 MODULATORS AND USES THEREOF” (Vir Biotechnology, Inc., priority 2021, published 2024).

Each compound was assayed against T1, human ENPP1 enzymatic domain (Homo sapiens, UniProt P22413) (assay: ENPP1 Enzymatic Inhibition Assay (2′3′-cGAMP substrate, AMP-Glo luminescence)). Conditions: 1 nM ENPP1, 20 uM 2′3′-cGAMP, 30 minutes at 37° C.
T1 construct: recombinant protein containing the human ENPP1 enzymatic domain; purchased Viva Biotech
T1 sequence (P22413 191-591 limits assumed): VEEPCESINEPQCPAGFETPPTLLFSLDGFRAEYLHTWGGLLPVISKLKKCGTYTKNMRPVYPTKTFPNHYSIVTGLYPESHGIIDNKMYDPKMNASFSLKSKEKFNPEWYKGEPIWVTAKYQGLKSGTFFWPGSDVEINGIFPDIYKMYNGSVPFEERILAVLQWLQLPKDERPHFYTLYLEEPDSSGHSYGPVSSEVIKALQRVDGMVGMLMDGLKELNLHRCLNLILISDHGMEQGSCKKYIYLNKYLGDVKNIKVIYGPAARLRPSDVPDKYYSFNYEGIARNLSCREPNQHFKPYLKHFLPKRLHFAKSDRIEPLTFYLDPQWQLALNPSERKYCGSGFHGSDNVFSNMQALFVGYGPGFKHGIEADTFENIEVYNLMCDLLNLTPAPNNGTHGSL
Assay type: biochemical
Description: The inhibition of ENPP1's phosphodiesterase activity were tested in a purified enzymatic assay using 2′3′-cyclic GAMP as a substrate which allowed for the release of cleaved AMP to be monitored using a luminescent assay.
Putative inhibitors were diluted in assay buffer (50 mM Tris pH 8.0, 250 mM NaCl, 0.5 mM CaCl2), 1 uM ZnCl2, 1% DMSO) and pre-incubated for 15 minutes at 37° C. with recombinant protein containing the human ENPP1 enzymatic domain (Viva Biotech). The enzymatic reaction was initiated upon addition of the 2′3′-cGAMP substrate. The final reaction concentrations were 1 nM ENPP1 and 20 uM 2′3′-cGAMP substrate in a 25 uL volume. Inhibitor concentrations ranged from 10 uM to 0.056 nM. The reaction was incubated for 30 minutes at 37° C.
After reacting for 30 minutes, the amount of AMP generated from the cleavage of 2′3′-cGAMP was determined using the Promega AMP-Glo method according to the manufacturer's protocol. First, AMP-Glo reagent 1 was added and incubated with the reaction mix for 1 hour at room temperature. Second, AMP Detection solution was added and the mixture was incubated for an additional hour. The luminescence of the mixture was read on a Perkin Elmer Ensight plate reader.
The maximum and minimum levels of ENPP1 activity were established using no inhibitor and no enzyme controls, respectively. The activity observed using ENPP1 inhibitors was quantified as the percent of activity relative to these controls. IC50 values were calculated using CDD Vault by fitting a sigmoidal variable slope nonlinear regression model to the data.

Row | Compound | IC50
1 | COc1ccc2c(Nc3ccc([S@@](=N)(=O)N[C@@H](C)CO)cc3)ccnc2c1 [Compound 40, (S)-N-((S)-1-hydroxypropan-2-yl)-4-((7-methoxyquinolin-4-yl)amino)benzenesulfonimidamide] | 10 to 100 nM
2 | COc1ccc2c(Nc3ccc([S@](=N)(=O)N[C@@H](C)c4ccnn4C)cc3)ccnc2c1 [Compound 41, (R)-4-((7-methoxyquinolin-4-yl)amino)-N-((S)-1-(1-methyl-1H-pyrazol-5-yl)ethyl)benzenesulfonimidamide] | 10 to 100 nM
3 | COc1ccc2c(Oc3ccc([S@@](=N)(=O)NC[C@H](O)C(C)(C)C)cc3)ccnc2c1 [Compound 44, (S)-N-((R)-2-hydroxy-3,3-dimethylbutyl)-4-((7-methoxyquinolin-4-yl)oxy)benzenesulfonimidamide] | 10 to 100 nM
4 | COc1ccc2c(Nc3ccc([S@](=N)(=O)NC[C@H](C)O)cc3F)ccnc2c1 [Compound 45, (R)-3-fluoro-N-((S)-2-hydroxypropyl)-4-((7-methoxyquinolin-4-yl)amino)benzenesulfonimidamide] | 10 to 100 nM
5 | COc1ccc2c(Nc3ccc([S@@](=N)(=O)NC[C@H](C)O)c(F)c3)ccnc2c1 [Compound 48, (S)-2-fluoro-N-((S)-2-hydroxypropyl)-4-((7-methoxyquinolin-4-yl)amino)benzenesulfonimidamide] | < 10 nM
6 | COc1ccc2c(Nc3ccc([S@](=N)(=O)NCCCn4cnnc4)cc3)ccnc2c1 [Compound 49, (R)-N-(3-(4H-1,2,4-triazol-4-yl)propyl)-4-((7-methoxyquinolin-4-yl)amino)benzenesulfonimidamide] | < 10 nM
7 | COc1ccc2c(Nc3ccc([S@@](=N)(=O)NCCCn4cnnc4)cc3)ccnc2c1 [Compound 50, (S)-N-(3-(4H-1,2,4-triazol-4-yl)propyl)-4-((7-methoxyquinolin-4-yl)amino)benzenesulfonimidamide] | < 10 nM
8 | COc1cc2nccc(Nc3ccc([S@](=N)(=O)NC[C@@H](C)O)cc3)c2cc1OC [Compound 51, (R)-4-((6,7-dimethoxyquinolin-4-yl)amino)-N-((R)-2-hydroxypropyl)benzenesulfonimidamide] | 10 to 100 nM
9 | COc1cc2nccc(Nc3ccc([S@@](=N)(=O)NC[C@@H](C)O)cc3)c2cc1OC [Compound 52, (S)-4-((6,7-dimethoxyquinolin-4-yl)amino)-N-((R)-2-hydroxypropyl)benzenesulfonimidamide] | < 10 nM
10 | COc1ccc2c(Nc3ccc([S@](=N)(=O)NCCO)cc3)ccnc2c1 [Compound 53, (R)-N-(2-hydroxyethyl)-4-((7-methoxyquinolin-4-yl)amino)benzenesulfonimidamide] | < 10 nM

Results, then the compound that gave them:

Row | IC50 | Compound
11 | < 10 nM | COc1ccc2c(Nc3ccc([S@](=N)(=O)N[C@@H](C)CO)cc3)ccnc2c1 [Compound 39, (R)-N-((S)-1-hydroxypropan-2-yl)-4-((7-methoxyquinolin-4-yl)amino)benzenesulfonimidamide]
12 | < 10 nM | COc1ccc2c(Nc3ccc([S@@](=N)(=O)N[C@@H](C)c4ccnn4C)cc3)ccnc2c1 [Compound 42, (S)-4-((7-methoxyquinolin-4-yl)amino)-N-((S)-1-(1-methyl-1 H-pyrazol-5-yl)ethyl)benzenesulfonimidamide]
13 | < 10 nM | COc1ccc2c(Oc3ccc([S@](=N)(=O)NC[C@H](O)C(C)(C)C)cc3)ccnc2c1 [Compound 43, (R)-N-((R)-2-hydroxy-3,3-dimethylbutyl)-4-((7-methoxyquinolin-4-yl)oxy)benzenesulfonimidamide]
14 | < 10 nM | COc1ccc2c(Nc3ccc([S@@](=N)(=O)NC[C@H](C)O)cc3F)ccnc2c1 [Compound 46, (S)-3-fluoro-N-((S)-2-hydroxypropyl)-4-((7-methoxyquinolin-4-yl)amino)benzenesulfonimidamide]
15 | < 10 nM | COc1ccc2c(Nc3ccc([S@](=N)(=O)NC[C@H](C)O)c(F)c3)ccnc2c1 [Compound 47, (R)-2-fluoro-N-((S)-2-hydroxypropyl)-4-((7-methoxyquinolin-4-yl)amino)benzenesulfonimidamide]
